Data published in ChEMBL document CHEMBL1133051, “Design and synthesis of a novel water soluble benzotetrazepinone” (Bioorg Med Chem Lett, 2000).

System: MCF7
Test: Inhibitory concentration of compound against Mer+ breast tumor cell line MCF-7
Assay type: functional, cell-based
Conditions: Homo sapiens

Compound | IC50 [µM]
Cn1nnc2c(C(N)=O)ncn2c1=O [TEMOZOLOMIDE] | 800
CN1N=Nc2cc(C(=O)NCCN3CCOCC3)ccc2N(C)C1=O | 80
